The results in this text go back to PubChem BioAssay (NCI).

SMILES strings stand for the structures. Values joined by “and” are separate entries in the source; they are usually repeats but may differ in a detail not shown here. Equal values may be shown once.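 Cultured in 96-well plates, cells were exposed to test compound for 48 hours across five concentrations. GI50 marks 50% less growth. The concentration for full growth arrest is given as TGI.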 Where a SMILES comes first, the peptide text is derived from it. [ ]: non-standard residue; d: D form. ξ: configuration not given here. Pentanoyl(2-O,4-OH,5-Cl) = O=C(O)C(O)CC(O)CCl; Ile(3ξ) = CCC(C)[C@H](N)C(=O)O; NMeV = CN[C@H](C(=O)O)C(C)C; NMeA = CN[C@@H](C)C(=O)O; βAla = NCCC(=O)O Some results are limits rather than exact numbers.

Experiment in all cases: NCI anticancer screen, dose series, 48 h
The test system of experiment [1] is K-562 leukemia.
The subject of experiment [2] is 786-0 renal.
Experiment [3] relates to OVCAR-4 ovarian.
The test system of experiment [4] is MCF7 breast.
The test system of experiment [5] is MDA-MB-435.
Experiment [6] has as its system A498 renal.
For experiment [7], the system named is UACC-62 melanoma.
In experiment [8] the test system is NCI/ADR-RES ovarian.
Experiment [9] deals with U251 CNS.
Experiment [10] has as its system NCI-H23 lung.

For `CN1CCN(c2cc(F)c(NC3=C(Cl)C(=O)c4ncccc4C3=O)c(F)c2)CC1`, the GI50 in experiment [1] was 0.651 µM; in experiment [2], 1.84 µM; in experiment [3], 1.35 µM; in [4] it was 1.07 µM; in [5], 1.66 µM; in experiment [6] it was 10.9 µM. In addition, the GI50 was 1.67 µM in experiment [7], 2.4 µM in [8], 1.8 µM in [9] and 1.4 µM in experiment [10]. The TGI was over 100 µM in [1]; 3.8 µM in experiment [2]; 2.65 µM in experiment [3]; 2.87 µM in experiment [4]; 3.2 µM in [5]; 23.7 µM in experiment [6]. Further, the TGI in experiment [7] was found to be 3.17 µM; in experiment [8], 6.53 µM; in experiment [9], 3.44 µM; in experiment [10] it was 3.01 µM.
In the case of `CCC(C)[C@@H]1NC(=O)[C@@H]2CCCN2C(=O)C(CC(O)CCl)OC(=O)CCNC(=O)[C@H](C)N(C)C(=O)[C@H](C(C)C)N(C)C1=O` (some centres undefined) (cyclo([Ile(3ξ)][NMeV][NMeA][βAla][Pentanoyl(2-O,4-OH,5-Cl)]P)), the TGI in experiment [1] is over 100 µM; in [2], over 86.2 µM; in experiment [3], over 100 µM; in experiment [4], over 100 µM; in [5], over 100 µM; in [6], over 93.5 µM. Moreover, the TGI in experiment [7] was 7.71 µM; in [8], over 100 µM; in experiment [9], over 100 µM; in experiment [10], over 100 µM.
With `[Cu].c1ccc2c(c1)C1=NC2=NC2=NC(=NC3=NC(=NC4=NC(=N1)c1ccccc14)c1ccccc13)c1ccccc12`, the GI50 in experiment [1], in experiment [2], in experiment [3], in [4], in experiment [5] and in experiment [6] was over 100 µM each time. Also, the GI50 in [7], in experiment [8], in experiment [9] and in experiment [10] was over 100 µM in each case. Further, the TGI in experiment [1], in experiment [2], in experiment [3], in experiment [4], in experiment [5] and in experiment [6] was over 100 µM each time. Besides, the TGI in [7], in experiment [8], in experiment [9] and in experiment [10] was over 100 µM throughout.
On to `CN1CCN(c2ccc3nc(-c4[nH]ncc4Nc4ncnc5[nH]ccc45)[nH]c3c2)CC1`, for which the GI50 is 0.299 µM in experiment [1]; 0.387 µM in experiment [2]; 0.343 µM in experiment [3]; 0.293 µM in [4]; 0.303 µM in experiment [5]; 0.253 µM in experiment [6]. Also, the GI50 in experiment [7] is 0.241 µM; in experiment [8], 5.24 µM; in experiment [9], 0.234 µM; in experiment [10], 0.517 µM. Further, the TGI in experiment [1] was over 100 µM; in experiment [2], 2.21 µM; in experiment [3] it was 2.13 µM; in [4], 11.2 µM; in experiment [5], 1.61 µM; in experiment [6] it was 0.588 µM. The TGI in experiment [7] is 1.56 µM; in experiment [8], over 100 µM; in experiment [9], 11.4 µM; in [10], 4.06 µM.
Turning to `CCOc1ccc2nc3cc(N)ccc3c(N)c2c1`, the GI50 in experiment [1] was 6.03 µM and 6.26 µM; in experiment [2] it was 2.12 µM and 2.37 µM; in experiment [3], 2.3 µM and 3.38 µM; in experiment [4] it was 2.05 µM and 1.66 µM; in [5], 10.6 µM and 7.74 µM; in experiment [6], 2.78 µM and 12.7 µM. In addition, the GI50 in [7] was 4.7 µM and 2.56 µM; in experiment [8] it was 9.69 µM and 24.6 µM; in experiment [9], 0.534 µM and 0.476 µM; in experiment [10] it was 2.2 µM and 2.31 µM. Besides, the TGI was 20.2 µM and 25.4 µM in [1]; 10.8 µM and 13.1 µM in experiment [2]; 5.45 µM and 13 µM in experiment [3]; 7.75 µM and 5.5 µM in [4]; 24.3 µM and 22.4 µM in experiment [5]; 29.1 µM and 37.5 µM in [6]. Further, the TGI in experiment [7] was 18.5 µM and 12 µM; in experiment [8], over 100 µM; in experiment [9], 2.49 µM and 2.09 µM; in experiment [10], 13.2 µM and 11.3 µM.
For the compound `CCOC(=O)c1sc2nc(=S)[nH]c(NC(N)=S)c2c1C`, the GI50 in experiment [1] is 28.3 µM; in [2], 21.5 µM; in experiment [3] it was 35.4 µM; in [4] it was 16.5 µM; in [5], 30.5 µM; in [6] it was 27.8 µM. For the same compound, the GI50 in experiment [7] was 12.4 µM; in experiment [8], 12.7 µM; in experiment [9], 17.2 µM; in experiment [10], 14.8 µM. Moreover, the TGI in experiment [1] was over 100 µM; in [2], 45.5 µM; in experiment [3] it was over 100 µM; in experiment [4], 37.2 µM; in [5] it was 70.3 µM; in [6] it was 62 µM. Besides, the TGI in experiment [7] was found to be 26.1 µM; in experiment [8], 29.9 µM; in experiment [9], 36.8 µM; in [10], 37.1 µM.
As for `Oc1ccc(CCNc2nc3ccccc3c3[nH]c4ccccc4c23)cc1O`, the GI50 is 1.83 µM in experiment [1]; 1.62 µM in [2]; 4.8 µM in experiment [3]; 3.13 µM in experiment [4]; 1.7 µM in [5]; 13.6 µM in experiment [6]. Moreover, the GI50 was 3.86 µM in [7], 9.15 µM in experiment [8], 2.53 µM in experiment [9] and 6.87 µM in experiment [10]. Also, the TGI in [1] came out at 4.13 µM; in experiment [2], 2.98 µM; in experiment [3], 16.9 µM; in experiment [5] it was 3.26 µM; in experiment [6], 26.5 µM; in [7], 13.4 µM. Also, the TGI in experiment [8] was 32.2 µM; in [9], 6.51 µM; in [10], 22.7 µM.
Turning to `O=c1[nH]c(=O)n(Cc2ccc(C34CC5CC(CC(C5)C3)C4)c(O)c2)cc1F`, the GI50 was 3.49 µM in experiment [1]; 13.8 µM in experiment [2]; 13.8 µM in experiment [3]; 11.9 µM in experiment [4]; 3.67 µM in [5]; 10.2 µM in experiment [6]. Further, the GI50 in [7] was 6.93 µM; in [8], 13 µM; in experiment [9], 12.3 µM; in experiment [10] it was 12.5 µM. The TGI is 18.2 µM in [1]; 28.5 µM in [2]; 30.2 µM in experiment [3]; 30.9 µM in experiment [4]; 15.4 µM in experiment [5]; 22.1 µM in experiment [6]. Moreover, the TGI in experiment [7] came out at 20.3 µM; in [8] it was 31.4 µM; in experiment [9], 24.9 µM; in experiment [10], 27.2 µM.
